Test results as given in US8815835B2, “9-aminonoscapine and its use in treating cancers, including drug-resistant cancers” (Emory University, priority 2008, dated 2014).

Columns and labels:
[1] = biological target: tubulin; test: Tubulin binding assay (fluorescence quenching, dissociation constant); conditions: 2 μM tubulin, 25 mM PIPES pH 6.8, 30 min at 25° C.; double reciprocal plot; mean±SD, four experiments
Protocol: Noscapine and 9-aminonoscapine (0-150 μM) were incubated with 2 μM tubulin in 25 mM PIPES, pH 6.8, 3 mM MgSO4, and 1 mM EGTA for 30 min at 25° C. The fluorescence intensities of tubulin in the absence and presence of different concentrations of the agents were monitored in a JASCO FP-6500 spectrofluorometer (JASCO, Tokyo, Japan) using a cuvette of 0.3-cm path length.
The excitation wavelength was 295 nm. The inner filter effects were corrected using a formula: […],
where Aex and Aem are the absorbance at the excitation and emission wavelengths.
The dissociation constant (Kd) was estimated using the following equation. ΔF=ΔFmaxL/(Kd+L)
where, ΔF is change in the fluorescence intensity of the tubulin upon binding to noscapine or 9-aminonoscapine, ΔFmax is the maximum change in the fluorescence intensity of the protein when it is fully bound with noscapine or 9-aminonoscapine, and L is the concentration of the ligand.
The ΔFmax value was calculated by the GraphPad Prism 5 software. ΔF was calculated by subtracting the fluorescence intensity of tubulin in the absence of noscapine or 9-aminonoscapine from the fluorescence intensity of tubulin in the presence of different concentrations of noscapine or 9-aminonoscapine.
The data were statistically analyzed and curve fitted using GraphPad Prism 5 software. […]

[2] = test system: 1A9 (ovarian cancer cells); test: Cell proliferation inhibition, 1A9; format: cell-based; conditions: 1A9, in words
[3] = test system: vinblastine-resistant variant CEM/VLB100; test: Cell proliferation inhibition, CEM/VLB100; format: cell-based, human; conditions: CEM/VLB100, in words
[4] = test system: teniposide-resistant variant CEM/VM-1-5; test: Cell proliferation inhibition, CEM/VM-1-5; format: cell-based, human; conditions: CEM/VM-1-5, in words
[5] = test system: panel of 60 human tumor cell lines; test: NCI 60-tumor cell line panel, Sulforhodamine B proliferation assay; format: cell-based; conditions: 48 h treatment, in words; IC50 values only in FIG. 2
Protocol: The panel of 60 human tumor cell lines is organized into subpanels representing leukemia, non-small cell lung, colon, CNS, melanoma, renal, ovarian, breast and prostrate cancer lines. Cells were treated with 9-aminonoscapine at increasing gradient concentrations for 48 h. The IC50 values, which stand for the drug concentration needed to prevent cell proliferation by 50% was then measured using an in vitro Sulforhodamine B assay. Panels show bar-graphically the comparison of IC50 values of 9-aminonoscapine (black bars) for cancer cell lines of various tissue origins.

[6] = test system: tubulin; test: Sedimentation assay of tubulin polymerization (polymer mass); format: biochemical; conditions: for Average % increase in polymer level: tubulin 10 μM, 37° C., 30 min
Protocol: Tubulin solution was centrifuged for 10 min at 80000 g at 4° C. Soluble tubulin was measured by Bradford method. Tubulin (10 μM) was mixed with different concentrations of 9-amino-Noscapine ([…]) in the assembly buffer (100 mM PIPES at pH 6.8, 3 mM MgSO4, 1 mM EGTA, 1 mM GTP, and 1 M sodium glutamate). A reaction control with DMSO was also set up.
Polymerization was carried on by maintaining the temperature at 37° C. in the water bath for 30 min. After polymerization, the reaction mixture was centrifuged at 120000 g at 30° C. for 30 min. The soluble tubulin content was measured by Bradford method. Polymer mass of tubulin was found out by deducting soluble tubulin mass from the total tubulin content.
Tubulin was polymerized in presence or absence of 9-aminonoscapine to observe its effect on polymer formation. Polymer mass of tubulin was measured by sedimentation assay. Before polymerization soluble tubulin comprises total tubulin. Total tubulin content was measured by measuring soluble tubulin by Bradford method. After polymerization, soluble tubulin content was measured and deducted from total tubulin content to find out the polymeric tubulin level.

[7] = test system: paclitaxel-resistant variant (1A9/PTX22); test: Cell proliferation inhibition, 1A9/PTX22; format: cell-based; conditions: 1A9/PTX22, in words
[8] = test system: human lymphoblastoid cells CEM; test: Cell proliferation inhibition, CEM; format: cell-based; conditions: in words

COc1ccc2c(c1OC)C(=O)O[C@@H]2[C@H]1c2c(c(N)c3c(c2OC)OCO3)CCN1C [9-aminonoscapine, (S)-6,7-dimethoxy-3-((R)-4-methoxy-6-methyl-9-amino-5,6,7,8-tetrahydro-[1,3]dioxolo[4,5-g]isoquinolin-5-yl)isobenzofuran-1(3H)-one]
Kd [1]: 14 ± 1 µM | inhibition of cell proliferation [2]: effectively inhibits cell proliferation | inhibition of cell proliferation [3]: effectively inhibits cell proliferation | inhibition of cell proliferation [4]: effectively inhibits cell proliferation | proliferation of various human cancer cells [5]: inhibits the proliferation | Average % increase in polymer level ([6]; 25 μM 9-aminonoscapine): 2.8 ± 0.98% | Average % increase in polymer level ([6]; 50 μM 9-aminonoscapine): 3.2 ± 3.6% | Average % increase in polymer level ([6]; 100 μM 9-aminonoscapine): 6.3 ± 3.8% | Average % increase in polymer level ([6]; 100 μM 9-aminonoscapine, listed as 9-amino-noscapine): 6.3±3.8% | effect on the assembly of tubulin into microtubules in vitro ([6]; in words): negligible effect | inhibition of cell proliferation [7]: effectively inhibits cell proliferation | inhibition of cell proliferation [8]: effectively inhibits cell proliferation

COc1ccc2c(c1OC)C(=O)O[C@@H]2[C@H]1c2c(cc3c(c2OC)OCO3)CCN1C [noscapine, (S)-6,7-dimethoxy-3-((R)-4-methoxy-6-methyl-5,6,7,8-tetrahydro[1,3]-dioxolo-[4,5-g]isoquinolin-5-yl)isobenzo-furan-1(3H)-one]
Kd [1]: 152 ± 1 µM
